These are literature values, as cited in patent publication US20060210645A1, “Pharmaceutically acceptable carrier for ophthalmic compositions” (priority 2005, published 2006).

For data set [1] the following is noted: relative to methyltestosterone.
For data set [2] the following is noted: relative to methyltestosterone. This is another data set of the same source.

Take `C[C@]12COC(=O)C[C@@H]1CC[C@@H]1[C@@H]2CC[C@@]2(C)[C@H]1CC[C@]2(C)O` [oxandrolone, 17 alpha-methyl-17β-hydroxy-2-oxa-5 alpha-androstan-3-one]: the “anabolic activity, % of that of methyltestosterone” value in data set [1] is on record as 322%. Moreover, the “androgenic activity, % of that of methyltestosterone” value in data set [2] is 24%.
